According to patent publication US12680075B2, “Immune cells derived from induced pluripotent stem cell” (THE CHILDREN'S MEDICAL CENTER CORPORATION, priority 2016, dated 2026):

How the values were obtained:
Format in all cases: cell-based, human
5F cells = test: Colony-forming assays of 5F cells treated with GSK126; settings: 3 uM GSK126
Method: Colony assays. After 14 days of respecification, 5×10^4 cells were plated into 3 ml of complete methylcellulose H3434 (StemCell Technologies) supplemented with 10 ng/ml IL6 (Peprotech), 10 ng/ml FLT3 (R&D), and 50 ng/ml TPO (R&D). The mixture was distributed into two 60 mm dishes and maintained in a humidified chamber for 14 days.
(§1) To dissect the importance of PRC2 in definitive hematopoietic potential, the inventors knocked down each component of PRC2 (2 shRNAs per gene) in 5F cells and assessed T cell differentiation. The inventors confirmed efficient knockdown by each shRNA (FIG. 3A). […] To validate this finding, the inventors used an […], GSK126, that has 150-fold higher selectivity for EZH2 over EZH1 (McCabe et al. 2012) (FIGS. 3G, 3I and 3J). […] To test the effect of EZH2 inhibition on T cell potential, the inventors generated definitive hemogenic endothelium (HE) from hPSCs with T lymphoid potential via inhibition of Activin/Nodal signaling at the early stage of mesoderm differentiation (Kennedy et al. 2012).

EZH2 and EZH1 = test: Total H3K27me3 protein levels in 5F cells treated with GSK126
Method: At 3 uM, protein levels of total H3K27me3 begins to decrease relative to DMSO control, indicating effective dose for EZH2 and EZH1 inhibition.
as §1

[1] = test system: CD34+ d9 hemogenic endothelial (HE) cells; test: T cell potential of CD34+ d9 hemogenic endothelial cells treated with GSK126; settings: 3 uM GSK126 vs DMSO-treated cells
Source text: as §1

Compound: CC[C@H](C)n1cc(C)c2c(C(=O)NCc3c(C)cc(C)[nH]c3=O)cc(-c3ccc(N4CCNCC4)nc3)cc21 [GSK126]
- toxicity as assessed by colony-forming assays (5F cells): partial toxicity
- global H3K27me3 (EZH2 and EZH1; 3 uM GSK126, 5F cells): markedly reduced
- concentration at which total H3K27me3 begins to decrease relative to DMSO control (effective dose for EZH2 and EZH1 inhibition) (EZH2 and EZH1; 5F cells): 3 µM
- EZH2 and EZH1 enzymatic activity as monitored by total protein levels of H3K27me3 (EZH2 and EZH1; increasing concentration of GSK126, 5F cells): dose-dependent decrease
- CD4+CD8+ T cell population [1]: abrogated
